Experimental findings from PubChem BioAssay (NCI) are described below.

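Cells were grown in 96-well plates and exposed to each compound for 48 hours at five concentrations; endpoints were interpolated linearly between bracketing concentrations, or set to the highest concentration if not reached. GI50 is the concentration that inhibits growth by half. At the TGI there is no net growth.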

Among the test systems are OVCAR-3 ovarian; NCI-H226 lung; A549 NSCLC; HCT-116 colon; MALME-3M melanoma; UACC-257 melanoma; EKVX NSCLC; M14 melanoma; U251 CNS; T-47D breast.
Holding throughout (assay): NCI-60 cell line screen, 48 h

`CN(C)CCNc1c2c(c(NCCN(C)C)c3c(CO)c[nH]c13)C(=O)c1ccccc1C2=O`: the GI50 was 3.91 µM with OVCAR-3 ovarian; 7.37 µM with NCI-H226 lung; 3.41 µM in the assay on A549 NSCLC; 0.721 µM in the assay on HCT-116 colon; 2.4 µM in the assay with MALME-3M melanoma; 9.85 µM with UACC-257 melanoma. Also, the GI50 with EKVX NSCLC is 3.05 µM; with M14 melanoma, 2.04 µM; with U251 CNS, 3.07 µM; with T-47D breast, 22.1 µM. The TGI is 25.1 µM in the assay with OVCAR-3 ovarian; 26.3 µM in the assay with NCI-H226 lung; over 37.6 µM in the assay on A549 NSCLC; 10.9 µM in the assay on HCT-116 colon; 6.83 µM in the assay on MALME-3M melanoma; over 76.2 µM with UACC-257 melanoma. In addition, the TGI with EKVX NSCLC is 9.34 µM; in the assay with M14 melanoma, 4.57 µM; in the assay on U251 CNS it was 22.5 µM; in the assay on T-47D breast, 48.2 µM.
Take `CN1N=Nc2c(C(F)(F)F)nn(-c3ccccc3)c2N(C)C1=O`: the GI50 in the assay on OVCAR-3 ovarian, in the assay on NCI-H226 lung, in the assay on A549 NSCLC, in the assay on HCT-116 colon, with MALME-3M melanoma and in the assay with UACC-257 melanoma was over 100 µM each time. The GI50 in the assay with EKVX NSCLC, in the assay on M14 melanoma, with U251 CNS and in the assay on T-47D breast was over 100 µM throughout. The TGI in the assay with OVCAR-3 ovarian, in the assay with NCI-H226 lung, in the assay with A549 NSCLC, in the assay with HCT-116 colon, in the assay on MALME-3M melanoma and in the assay with UACC-257 melanoma was over 100 µM in each case. In addition, the TGI in the assay on EKVX NSCLC, with M14 melanoma, in the assay on U251 CNS and in the assay with T-47D breast was over 100 µM each time.
Turning to `N#C/C(=C\c1cccnc1)c1nc2ccccc2o1`, the GI50 in the assay with OVCAR-3 ovarian is over 100 µM; with NCI-H226 lung it was over 100 µM; with A549 NSCLC, over 100 µM; in the assay on HCT-116 colon, over 100 µM; in the assay on MALME-3M melanoma, 21.8 µM; with UACC-257 melanoma it was over 100 µM. The GI50 in the assay with EKVX NSCLC, in the assay on M14 melanoma, in the assay with U251 CNS and with T-47D breast was over 100 µM in each case. In addition, the TGI with OVCAR-3 ovarian, in the assay on NCI-H226 lung, with A549 NSCLC, in the assay with HCT-116 colon, in the assay on MALME-3M melanoma and in the assay on UACC-257 melanoma was over 100 µM each time. Further, the TGI in the assay on EKVX NSCLC, with M14 melanoma, in the assay with U251 CNS and in the assay on T-47D breast was over 100 µM throughout.
Regarding `COc1cc(N=Nc2cccc(S(N)(=O)=O)c2)c2ccccc2c1N`, the TGI in the assay with OVCAR-3 ovarian was found to be 27.5 µM; with NCI-H226 lung, 39.7 µM; with A549 NSCLC, 33 µM; in the assay on HCT-116 colon, 29.2 µM; with MALME-3M melanoma it was 3.13 µM; in the assay on UACC-257 melanoma, 3.37 µM. In addition, the TGI in the assay with EKVX NSCLC is 27.4 µM; with M14 melanoma, 3.43 µM; in the assay on U251 CNS, 22.5 µM; with T-47D breast it was over 61.2 µM.
Take `CCCNc1cccc(-n2ncc3c(N/N=C/c4ccncc4)ncnc32)c1`: the GI50 was 2.17 µM in the assay on OVCAR-3 ovarian; over 16.5 µM in the assay with NCI-H226 lung; over 7.61 µM in the assay with A549 NSCLC; 1.82 µM in the assay with HCT-116 colon; over 7.75 µM in the assay on MALME-3M melanoma; over 25 µM with UACC-257 melanoma. The GI50 is over 25 µM with EKVX NSCLC, 1.69 µM with M14 melanoma, 17 µM with U251 CNS and over 25 µM with T-47D breast. Further, the TGI in the assay on OVCAR-3 ovarian, in the assay with NCI-H226 lung, in the assay on A549 NSCLC, with HCT-116 colon, in the assay with MALME-3M melanoma and with UACC-257 melanoma was over 25 µM throughout. For the same compound, the TGI in the assay with EKVX NSCLC, in the assay on M14 melanoma, with U251 CNS and with T-47D breast was over 25 µM throughout.
For the compound `O=C(Nc1ccc(-c2ccnc(Nc3ccc(N4CCOCC4)cc3)n2)cc1)C1CCCN1` (stereo not given), the GI50 in the assay with OVCAR-3 ovarian is 9.43 µM; in the assay on NCI-H226 lung, 6.69 µM; with A549 NSCLC, 5.66 µM; in the assay with HCT-116 colon, 1.43 µM; in the assay with MALME-3M melanoma, 6.71 µM; in the assay on UACC-257 melanoma, 8.99 µM. Also, the GI50 with EKVX NSCLC was 12.5 µM; in the assay with M14 melanoma, 7.23 µM; with U251 CNS it was 3.05 µM; in the assay on T-47D breast, 14.7 µM. The TGI stood at 27.3 µM with OVCAR-3 ovarian; 52.5 µM in the assay on NCI-H226 lung; 35.3 µM with A549 NSCLC; 18.5 µM in the assay on HCT-116 colon; 23.1 µM in the assay with MALME-3M melanoma; 22.8 µM in the assay with UACC-257 melanoma. Also, the TGI was determined as 33.7 µM in the assay with EKVX NSCLC, 22.8 µM in the assay on M14 melanoma, 21.6 µM in the assay on U251 CNS and 38.7 µM in the assay with T-47D breast.
In the case of `N#CC1CCc2c(c(-c3cn[nH]c3C(F)(F)F)nc3c(F)cc4[nH]ncc4c23)C1` (stereo not given), the GI50 is 4.89 µM with OVCAR-3 ovarian; 16 µM in the assay on NCI-H226 lung; 21.2 µM in the assay on A549 NSCLC; 3.15 µM with HCT-116 colon; 3.31 µM in the assay on MALME-3M melanoma; 12.9 µM in the assay on UACC-257 melanoma. In addition, the GI50 with EKVX NSCLC was 5.93 µM; in the assay with M14 melanoma, 3.88 µM; with U251 CNS it was 15.1 µM; in the assay on T-47D breast it was 3.06 µM. Further, the TGI in the assay on OVCAR-3 ovarian is 42.6 µM; in the assay on NCI-H226 lung, over 100 µM; in the assay on A549 NSCLC, over 100 µM; with HCT-116 colon, 19.6 µM; in the assay with MALME-3M melanoma, 11.5 µM; in the assay with UACC-257 melanoma, 74.5 µM. Also, the TGI is 28.2 µM in the assay with EKVX NSCLC, 21.7 µM in the assay on M14 melanoma, over 100 µM in the assay on U251 CNS and 26.1 µM in the assay with T-47D breast.
`C=Cc1cnc([N+](=O)[O-])n1C`: the TGI in the assay on OVCAR-3 ovarian, in the assay on NCI-H226 lung, in the assay with A549 NSCLC, with HCT-116 colon, with MALME-3M melanoma and in the assay on UACC-257 melanoma was over 100 µM in each case. Moreover, the TGI in the assay with EKVX NSCLC, with M14 melanoma, with U251 CNS and in the assay on T-47D breast was over 100 µM throughout.
